Data on 43 compounds can be found in patent US6620828B2, “Thiazole compounds and pharmaceutical compositions for inhibiting protein kinases and methods for their use” (Agouron Pharmaceuticals, Inc., priority 1999, dated 2003).

This assay concerns human umbilical vein endothelial cells (HUVEC). Nature of the assay: HUVEC proliferation assay. Type of assay: cell-based. Conditions: for inhibition at 0.001 µM / inhibition at 0.01 µM / inhibition at 0.05 µM / inhibition at 0.15 µM: Homo sapiens, HUVEC; for inhibition at 0.001 µM: 1 nM; for inhibition at 0.01 µM: 10 nM; for inhibition at 0.05 µM: 50 nM. The method in brief:
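Exponentially growing HUVEC were serum-starved 24 h (F12K + 1% FBS), pre-treated 1 h with compound (0.1% DMSO final), then stimulated with 6 ng/ml VEGF. Proliferation was read 72 h later by MTT reduction (A595). IC50 came from seven 0.5-log concentrations in triplicate; screens gave % inhibition relative to VEGF-only and starved wells.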

Setting [1] is: table following Table II (untitled), crude combinatorial library.
[2] abbreviates: table following Table II (untitled), crude combinatorial library, read-out: % inhibition @ 10 nM.
Setting [3] is: Inhibition of HUVEC Proliferation, crude combinatorial urea library, read-out: % inhibition @ 50 nM.
Setting [4] is: Table I screening results, 150 nM, crude combinatorial amide library.
Setting [5] is: Table II screening results, crude combinatorial amide library.
Setting [6] is: Table II screening results, crude combinatorial amide library, read-out: % inhibition @ 10 nM.
The mark [7] stands for this setting: crude combinatorial urea library, read-out: Inhibition of HUVEC Proliferation % inhibition @ 10 nM.
[8] abbreviates: crude combinatorial urea library, read-out: Inhibition of HUVEC Proliferation % inhibition @ 50 nM.
The mark [9] stands for this setting: Inhibition of HUVEC Proliferation, crude combinatorial urea library, read-out: Inhibition @ 50 nM.

Where two headings read alike, the source gives them in different places.

Consider `COc1cc(Nc2nc(N)c(-c3nc(-c4cc(NC(=O)CC5=CCCCC5)ccc4C)no3)s2)cc(OC)c1OC`, for which the inhibition at 0.001 µM under setting [1] was -12%. Also, the inhibition at 0.01 µM under setting [2] was 43%.

As for `COc1cc(Nc2nc(N)c(-c3nc(-c4cc(NC(=O)C(C)C)ccc4C)no3)s2)cc(OC)c1OC`, the inhibition at 0.001 µM under setting [1] came to 6%. Also, the inhibition at 0.01 µM under setting [2] worked out at 1%.

For `COc1cccc(C(=O)Nc2cc(-c3csc(-c4sc(NC(=O)NCCc5ccc(N)cc5)nc4N)n3)c(F)cc2F)c1`, the inhibition at 0.05 µM under setting [3] worked out at 65%.

Regarding `COc1cc(Nc2nc(N)c(-c3nc(-c4cccc(NC(=O)CCc5cccnc5)c4)cs3)s2)cc(OC)c1OC`, under setting [4], the “% inhibition @ 150 nM” value is listed as 0%.

As to `CNC(=O)Nc1nc(N)c(-c2nc(-c3cccc(NC(=O)c4cccc5cc[nH]c45)c3)cs2)s1`, the inhibition at 0.001 µM under setting [5] was -11%. Besides, under setting [6], the inhibition at 0.01 µM amounted to 60%.

As for `CNC(=O)Nc1nc(N)c(-c2nc(-c3cccc(NC(=O)c4cc(F)ccc4C)c3)cs2)s1`, the inhibition at 0.001 µM under setting [5] is -1%. Also, the inhibition at 0.01 µM under setting [6] was 78%.

Take `COc1cc(Nc2nc(N)c(-c3nc(-c4cc(NC(=O)c5cc(C)n(C)n5)ccc4C)no3)s2)cc(OC)c1OC`: under setting [1], the inhibition at 0.001 µM stood at 25%. Further, the inhibition at 0.01 µM under setting [2] is 99%.

As to `COc1cccc(C(=O)Nc2cccc(-c3csc(-c4sc(NC(=O)NCP(=O)(O)O)nc4N)n3)c2)c1`, the inhibition at 0.01 µM under setting [7] was -8%. Besides, the inhibition at 0.05 µM under setting [8] is 38%.

Regarding `COc1cc(Nc2nc(N)c(-c3nc(-c4cccc(NC(=O)CCC5CCCCC5)c4)cs3)s2)cc(OC)c1OC`, the inhibition at 0.15 µM under setting [4] stood at 8%.

Consider `COc1cc(Nc2nc(N)c(-c3nc(-c4cc(NC(=O)C5CC5C)ccc4C)no3)s2)cc(OC)c1OC` (stereo not shown), for which the inhibition at 0.001 µM under setting [1] amounted to 24%. Moreover, the inhibition at 0.01 µM under setting [2] was 6%.

As for `COc1cccc(C(=O)Nc2cccc(-c3csc(-c4sc(NC(=O)NC(C)CN(C)C)nc4N)n3)c2)c1` (stereo not shown), the inhibition at 0.01 µM under setting [7] is 12%. Besides, under setting [8], the inhibition at 0.05 µM came to 28%.

Regarding `COc1cccc(C(=O)Nc2cccc(-c3csc(-c4sc(NC(=O)NCC(C)N(C)C)nc4N)n3)c2)c1` (stereo not shown), under setting [7], the inhibition at 0.01 µM was -22%. Further, under setting [8], the inhibition at 0.05 µM was -3%.

For `CNC(=O)Nc1nc(N)c(-c2nc(-c3cccc(NC(=O)c4cc(=O)cco4)c3)cs2)s1`, under setting [5], the inhibition at 0.001 µM stood at 47%. Moreover, the inhibition at 0.01 µM under setting [6] was determined as 27%.

For `COc1cccc(C(=O)Nc2cc(-c3csc(-c4sc(NC(=O)NCCCN5CCCCC5)nc4N)n3)c(F)cc2F)c1`, the inhibition at 0.05 µM under setting [3] stood at 89%.

Take `COc1cccc(C(=O)Nc2cc(-c3csc(-c4sc(NC(=O)N[C@@H](CO)C(N)=O)nc4N)n3)c(F)cc2F)c1`: the inhibition at 0.05 µM under setting [3] is 69%.

Take `CCOC(=O)c1cc(C(=O)Nc2cccc(-c3csc(-c4sc(Nc5cc(OC)c(OC)c(OC)c5)nc4N)n3)c2)cc(C(=O)OCC)c1`: under setting [4], the inhibition at 0.15 µM was 6%.

Take `COc1cccc(C(=O)Nc2cc(-c3csc(-c4sc(NC(=O)NCC(C)(C)CO)nc4N)n3)c(F)cc2F)c1`: the inhibition at 0.05 µM under setting [3] turned out to be 120%.

On to `COc1ccccc1CC(=O)Nc1cccc(-c2csc(-c3sc(Nc4cc(OC)c(OC)c(OC)c4)nc3N)n2)c1`, for which, under setting [4], the inhibition at 0.15 µM amounted to 58%.

With `COc1cc(Nc2nc(N)c(-c3nc(-c4cccc(NC(=O)c5ccc(CCCl)cc5)c4)cs3)s2)cc(OC)c1OC`, under setting [4], the inhibition at 0.15 µM is 59%.

In the case of `COc1cc(Nc2nc(N)c(-c3nc(-c4cccc(NC(=O)c5ccc6c(c5)C(=O)c5ccccc5-6)c4)cs3)s2)cc(OC)c1OC`, the inhibition at 0.15 µM under setting [4] is -4%.

Consider `COc1cc(Nc2nc(N)c(-c3nc(-c4cc(NC(=O)c5cc(C)on5)ccc4C)no3)s2)cc(OC)c1OC`, for which the inhibition at 0.001 µM under setting [1] is 12%. Further, under setting [2], the inhibition at 0.01 µM amounted to 15%.

Turning to `CNC(=O)Nc1nc(N)c(-c2nc(-c3cccc(NC(=O)C4CC5CC(O)C4C5)c3)cs2)s1` (stereo not shown), the inhibition at 0.001 µM under setting [5] was 20%. Besides, the inhibition at 0.01 µM under setting [6] amounted to 19%.

With `COc1cc(Nc2nc(N)c(-c3nc(-c4cccc(NC(=O)c5cccs5)c4)cs3)s2)cc(OC)c1OC`, the inhibition at 0.15 µM under setting [4] came out at 29%.

With `COc1cc(Nc2nc(N)c(-c3nc(-c4cccc(NC(=O)C5CCCCCC5)c4)cs3)s2)cc(OC)c1OC`, under setting [4], the inhibition at 0.15 µM turned out to be 13%.

`COc1cccc(C(=O)Nc2cc(-c3noc(-c4sc(NC(=O)NCCc5c[nH]cn5)nc4N)n3)c(F)cc2F)c1`: under setting [9], the inhibition at 0.05 µM came to 72%.

With `COc1cc(Nc2nc(N)c(-c3nc(-c4cc(NC(=O)Cc5sc(S)nc5C)ccc4C)no3)s2)cc(OC)c1OC`, under setting [1], the inhibition at 0.001 µM is -17%. Moreover, the inhibition at 0.01 µM under setting [2] is 1%.

Consider `COc1cc(Nc2nc(N)c(-c3nc(-c4cccc(NC(=O)CCN5CCCCC5)c4)cs3)s2)cc(OC)c1OC`, for which the inhibition at 0.15 µM under setting [4] is 15%.

For `COc1cc(Nc2nc(N)c(-c3nc(-c4cccc(NC(=O)c5ccc(N6N=C(C)CC6=O)cc5)c4)cs3)s2)cc(OC)c1OC`, the inhibition at 0.15 µM under setting [4] is 0%.

Turning to `COc1cc(Nc2nc(N)c(-c3nc(-c4cccc(NC(=O)c5ccc6c(c5)C(=O)NC6=O)c4)cs3)s2)cc(OC)c1OC`, the inhibition at 0.15 µM under setting [4] is -6%.

Consider `CCCCN(CCCC)CCCNC(=O)Nc1nc(N)c(-c2nc(-c3cc(NC(=O)c4cccc(OC)c4)c(F)cc3F)no2)s1`, for which the inhibition at 0.05 µM under setting [9] came out at 80%.

For `COc1cc(Nc2nc(N)c(-c3nc(-c4cccc(NC(=O)c5ccccc5)c4)cs3)s2)cc(OC)c1OC` [drawing 845], the inhibition at 0.15 µM under setting [4] stood at 33%.

As to `COc1cc(Nc2nc(N)c(-c3nc(-c4cccc(NC(=O)Cc5ccccc5F)c4)cs3)s2)cc(OC)c1OC`, under setting [4], the inhibition at 0.15 µM came out at 21%.

Turning to `COc1cc(Nc2nc(N)c(-c3nc(-c4cc(NC(=O)c5cc(C)cc(=O)o5)ccc4C)no3)s2)cc(OC)c1OC`, under setting [1], the inhibition at 0.001 µM was -2%. The inhibition at 0.01 µM under setting [2] amounted to 66%.

Turning to `CNC(=O)Nc1nc(N)c(-c2nc(-c3cccc(NC(=O)C4(c5ccc(C)cc5)CC4)c3)cs2)s1`, the inhibition at 0.001 µM under setting [5] is -8%. Also, the inhibition at 0.01 µM under setting [6] is -6%.

For the compound `CNC(=O)Nc1nc(N)c(-c2nc(-c3cccc(NC(=O)CCC(=O)N4CCCC4)c3)cs2)s1`, under setting [5], the inhibition at 0.001 µM was 6%. Also, the inhibition at 0.01 µM under setting [6] was -10%.

As to `COc1cc(Nc2nc(N)c(-c3nc(-c4cccc(NC(=O)c5ccc6c(c5)OCO6)c4)cs3)s2)cc(OC)c1OC`, the inhibition at 0.15 µM under setting [4] is 42%.

As to `COc1cc(Nc2nc(N)c(-c3nc(-c4cc(NC(=O)C5CCCC(OC)C5)ccc4C)no3)s2)cc(OC)c1OC` (stereo not shown), the inhibition at 0.001 µM under setting [1] is -4%. In addition, the inhibition at 0.01 µM under setting [2] was 19%.

For `COc1cccc(C(=O)Nc2cccc(-c3csc(-c4sc(NC(=O)N[C@H](CO)Cc5c[nH]cn5)nc4N)n3)c2)c1`, under setting [7], the inhibition at 0.01 µM is 16%. In addition, under setting [8], the inhibition at 0.05 µM was found to be 19%.

With `COc1cc(Nc2nc(N)c(-c3nc(-c4cc(NC(=O)C5CCN(C(C)=O)CC5)ccc4C)no3)s2)cc(OC)c1OC`, the inhibition at 0.001 µM under setting [1] was -4%. Further, the inhibition at 0.01 µM under setting [2] was 16%.

For `COc1cccc(C(=O)Nc2cc(-c3noc(-c4sc(NC(=O)NCCNC(C)=O)nc4N)n3)c(F)cc2F)c1`, under setting [9], the inhibition at 0.05 µM stood at 75%.

`COc1cccc(C(=O)Nc2cccc(-c3csc(-c4sc(NC(=O)NCc5ccncc5)nc4N)n3)c2)c1`: the inhibition at 0.01 µM under setting [7] is -2%. The inhibition at 0.05 µM under setting [8] came to 116%.

With `COc1cccc(C(=O)Nc2cc(-c3csc(-c4sc(NC(=O)NCCN5CCCC5)nc4N)n3)c(F)cc2F)c1` [drawing 703], the inhibition at 0.05 µM under setting [3] is 93%.

For `CNC(=O)Nc1nc(N)c(-c2nc(-c3cccc(NC(=O)C4CCCN4C(C)=O)c3)cs2)s1` (stereo not shown), the inhibition at 0.001 µM under setting [5] turned out to be 3%. Also, under setting [6], the inhibition at 0.01 µM is 27%.
